The test system of the assay is anti-C-myc peptide monoclonal antibody 9E10. Briefly: bead staining test for binding to anti-C-myc monoclonal antibody 9E10. As to conditions: bead-bound peptides of the 117,649 peptide library; 1:200 dilution of 9E10 ascites fluid; alkaline phosphatase-coupled goat antimouse IgG colour detection; sequence read from tags. On the procedure:
The anti-C-myc peptide monoclonal antibody 9E10 was prepared from ascites fluid as described in Evans et al., Mol. Cell Biol., 5, 3610-3616 (1985) and Munro and Pelham, Cell, 48, 899-907 (1987). To test beads for binding to 9E10, beads were incubated in TBST [20 mM Tris-HCl (pH 7.5), 500 mM NaCl and 0.05% Tween-20] containing 1% bovine serum albumin (BSA) to block non-specific protein binding sites. The beads were then centrifuged, resuspended in a 1:200 dilution of 9E10 ascites fluid in TBST+1% BSA and incubated overnight at 4° C. Beads were subsequently washed three times in TBST and incubated for 90 min. at room temperature in alkaline phosphatase-coupled goat antimouse IgG antibodies (Bio-Rad Laboratories), diluted 1:3000 in TBST+1% BSA. After washing the beads twice in TBST and once in phosphatase buffer (100 mM Tris-HCl, pH 9.5, 100 mM NaCl and 5 mM MgCl2), the beads were incubated 1 hr at room temperature in phosphatase buffer containing one one-hundredth part each of AP Color Reagents A & B (Bio-Rad Laboratories). To stop the reaction, the beads were washed twice in 20 mM sodium EDTA, pH 7.4. Solution phase affinities between 9E10 and various peptides were determined by a modification of the competitive ELISA assay described by Harlow et al., Antibodies: a Laboratory Manual, 570-573, Cold Spring Harbor Press, Cold Spring Harbor, N.Y.

Regarding EQKLISEEDL, the “beads stained on exposure to the anti-C-myc monoclonal antibody” value is recorded as “stained”.

The values are drawn from US6503759B1, “Complex combinatorial chemical libraries encoded with tags” (The Trustees of Columbia University in the City of New York, priority 1992, dated 2003).
